In US20200404919A1, “USE OF HETEROARYL-TRIAZOLE AND HETEROARYL-TETRAZOLE COMPOUNDS AS PESTICIDES IN PLANT PROTECTION” (Bayer Aktiengesellschaft, priority 2018, published 2020):

Assays:
Format in all cases: in vivo
Aphis gossypii = Aphis gossypii - oral test; settings: 120 h, read-out: mortality in %
Protocol: Solvent: 100 parts by weight acetone
(§1) To produce a suitable preparation of active compound, 1 part by weight of active compound is mixed with the stated amount of solvent, and the concentrate is diluted with water to the desired concentration.
50 μl compound solution is filled in microtiter plates and 150 μl IPL41 insect medium (33%+15% sugar) is added to obtain a total volume of 200 μl per well. Afterwards the plates are sealed with parafilm through which a mixed population of the cotton aphid (Aphis gossypii) can suck on the compound preparation.
(§2) After 5 days mortality in % is determined. 100% means all aphids have been killed and 0% means none of the aphids have been killed.

Meloidogyne incognita = Meloidogyne incognita - test; settings: 336 h, salad seedlings in sand, after 14 days, read-out: nematicidal activity (percentage of gall formation)
Protocol: Meloidogyne incognita—Test
Solvent: 125.0 parts by weight of acetone
as §1
Vessels are filled with sand, a solution of the active ingredient, a suspension containing eggs and larvae of the southern root-knot nematode (Meloidogyne incognita) and salad seeds. The salad seeds germinate and the seedlings grow. Galls develop in the roots.
After 14 days the nematicidal activity is determined on the basis of the percentage of gall formation. 100% means no galls were found and 0% means the number of galls found on the roots of the treated plants was equal to that in untreated control plants.

Diabrotica balteata = Diabrotica balteata - spray test; settings: 168 h, 160 μg/well, germinated wheat seeds, larvae, after 7 days, read-out: efficacy in %
Protocol: Diabrotica balteata—Spray Test
(§3) To produce a suitable preparation of active compound, 1 part by weight of active compound is mixed with the stated amount of solvent, and the concentrate is diluted with water, containing an emulsifier concentration of 1000 ppm, to the desired concentration. Further test concentrations are prepared by dilution with emulsifier containing water.
Soaked wheat seeds (Triticum aestivum) are placed in a multiple well plate filled with agar and some water and are incubated for 1 day to germinate (5 seeds per well). The germinated wheat seeds are sprayed with a test solution containing the desired concentration of the active ingredient. Afterwards each unit is infected with 10-20 larvae of the banded cucumber beetle (Diabrotica balteata).
After 7 days efficacy in % is determined. 100% means all the seedlings have grown up like in the untreated, uninfected control; 0% means none of the seedlings have grown.

Myzus persicae = Myzus persicae - oral test; settings: 120 h, read-out: mortality in %
Protocol: To produce a suitable preparation of active compound, 1 part by weight of active compound is mixed with the stated amount of solvent, and the concentrate is diluted with water to the desired concentration. 50 μl compound solution is filled in microtiter plates and 150 μl IPL41 insect medium (33%+15% sugar) is added to obtain a total volume of 200 μl per well. Afterwards the plates are sealed with parafilm through which a mixed population of the green peach aphid (Myzus persicae) can suck on the compound preparation.
as §2

Phaedon cochleariae = Phaedon cochleariae - spray test; settings: in Brassica rapa, foliar, 168 h, read-out: mortality in %
Protocol: Phaedon cochleariae—Spray Test
as §3, with “solvents” for “solvent,”, “and” for “and the concentrate”
Chinese cabbage (Brassica pekinensis) leaf disks are sprayed with a preparation of the active ingredient of the desired concentration. Once dry, the leaf disks are infested with mustard beetle larvae (Phaedon cochleariae).
After 7 days mortality in % is determined. 100% means all beetle larvae have been killed and 0% means none of the beetle larvae have been killed.

Nezara viridula = Nezara viridula - spray test 1; settings: in Hordeum vulgare, 96 h, read-out: mortality in %
Protocol: Nezara viridula—Spray Test 1
as §3
Barley plants (Hordeum vulgare) infested with larvae of the southern green stink bug (Nezara viridula) are sprayed with a test solution containing the desired concentration of the active ingredient.
After 4 days mortality in % is determined. 100% means all the stink bugs have been killed; 0% means none of the stink bugs have been killed.

[1] = tested on: Aedes aegypti strain MONHEIM; assay: Aedes test (AEDSAE surface treatment & contact assay); settings: 30 minutes exposure, 24 hours after contact, read-out: efficacy (mortality in percent); for mortality at 20 mg/m2: surface concentration 20 mg/m^2, glazed tile
Protocol: Aedes Test (AEDSAE Surface Treatment & Contact Assay)
Solvent: Aceton+2000 ppm rapeseed oil methyl ester (RME)
(§4) In order to produce a sufficient, active ingredient containing solution it is necessary to solve the test-compound in an acetone/RME solvent mixture. This solution is pipetted onto a glazed tile and after evaporation of the acetone, adult mosquitoes of the species Aedes aegypti strain MONHEIM are placed onto the dried surface. The exposure time is 30 minutes.
(§5) Mortality in percent (%) is determined 24 hours after contact to the treated surface. 100% mortality means that all test-insects are dead, whereas 0% means that not a single insect died.

Culex quinquefasciatus = assay: Culex test (CULXFAS surface treatment & contact assay); settings: 30 minutes exposure, 24 hours after contact, read-out: efficacy (mortality in percent); for mortality at 4 mg/m2: surface concentration 4 mg/m^2, glazed tile; for mortality at 20 mg/m2: surface concentration 20 mg/m^2, glazed tile
Protocol: Culex Test (CULXFAS Surface Treatment & Contact Assay)
Solvent: Acetone+2000 ppm rapeseed oil methyl ester (RME)
as §4, with “Culex quinquefasciatus (Brown house mosquito)” for “Aedes aegypti strain MONHEIM”
as §5

[2] = tested on: Musca domestica strain WHO-N; assay: Musca domestica test (MUSCDO surface treatment & contact assay); settings: 30 minutes exposure, 24 hours after contact, read-out: efficacy (mortality in percent); for mortality at 4 mg/m2: surface concentration 4 mg/m^2, glazed tile; for mortality at 20 mg/m2: surface concentration 20 mg/m^2, glazed tile
Protocol: Musca domestica Test (MUSCDO Surface Treatment & Contact Assay)
(§6) Solvent: Aceton+2000 ppm Rapeseed oil methyl ester (RME)
as §4, with “flies” for “mosquitoes”, “Musca domestica” for “Aedes aegypti”, “WHO-N” for “MONHEIM”
as §5

Nilaparvata lugens = Nilaparvata lugens - spray test 1; settings: in Oryza sativa, 96 h, read-out: mortality in %, 500 g/ha, rice plants, after 4 days
Protocol: Nilaparvata lugens—Spray Test 1
as §3, with “solvents” for “solvent,”, “and” for “and the concentrate”
Rice plants (Oryza sativa) are sprayed with a preparation of the active ingredient of the desired concentration and the plants are infested with the brown planthopper (Nilaparvata lugens).
After 4 days mortality in % is determined. 100% means all planthoppers have been killed and 0% means none of the planthoppers have been killed.

Spodoptera frugiperda = Spodoptera frugiperda - spray test; settings: in Zea mays, 168 h, read-out: mortality in %
Protocol: Spodoptera frugiperda—Spray Test
as §3, with “solvents” for “solvent,”, “and” for “and the concentrate”
Maize (Zea mays) leaf sections are sprayed with a preparation of the active ingredient of the desired concentration. Once dry, the leaf sections are infested with fall armyworm larvae (Spodoptera frugiperda).
After 7 days mortality in % is determined. 100% means all caterpillars have been killed and 0% means none of the caterpillars have been killed.

[3] = tested on: Blattella germanica strain PAULINIA; assay: Blattella germanica test (BLTTGE surface treatment & contact assay); settings: 30 minutes exposure, 24 hours after contact, read-out: efficacy (mortality in percent); for mortality at 20 mg/m2: surface concentration 20 mg/m^2, glazed tile
Protocol: Blattella germanica Test (BLTTGE Surface Treatment & Contact Assay)
as §6
as §4, with “animals” for “mosquitoes”, “Blattella germanica” for “Aedes aegypti”, “PAULINIA” for “MONHEIM”
as §5

[4] = surface concentration 4 mg/m^2, glazed tile

SMILES | mortality at 100 ppm (Aphis gossypii) [%] | pest or weed control at 20 ppm (Meloidogyne incognita) [%] | pest or weed control at 160 µg/disc, 160 µg/well (Diabrotica balteata) [%] | mortality at 20 ppm (Myzus persicae) [%] | mortality at 500 g/ha (Phaedon cochleariae) [%] | mortality at 500 g/ha (Nezara viridula) [%] | mortality at 4 mg/m2 [1, 4] [%] | mortality at 20 mg/m2 [1] [%] | mortality at 4 mg/m2 (Culex quinquefasciatus) [%] | mortality at 20 mg/m2 (Culex quinquefasciatus) [%] | mortality at 4 mg/m2 [2] [%] | mortality at 20 mg/m2 [2] [%] | mortality at 500 g/ha (Nilaparvata lugens) [%] | mortality at 500 g/ha (Spodoptera frugiperda) [%] | mortality at 4 mg/m2 [3, 4] [%] | mortality at 20 mg/m2 [3] [%]
CC(c1ncnn1-c1ncccn1)N(CC1CC1)C(=O)c1cccc(C#N)c1 (stereo not shown) [Compound I-38, 3-cyano-N-(cyclopropylmethyl)-N-[1-(2-pyrimidin-2-yl-1,2,4-triazol-3-yl)ethyl]benzamide] | 100 | 100 | 100 | 100 | 100 | 100 | – | – | – | – | – | – | – | – | – | –
CC(NC(=O)c1cc(C(F)(F)F)cc(C(F)(F)F)c1)c1ncnn1-c1ncccn1 (stereo not shown) [Compound I-63, N-[1-(2-pyrimidin-2-yl-1,2,4-triazol-3-yl)ethyl]-3,5-bis(trifluoromethyl)benzamide] | 100 | – | 100 | 100 | 100 | 100 | 80 to 100 | 80 to 100 | 80 to 100 | 80 to 100 | 80 to 100 | 80 to 100 | 100 | 100 | 80 to 100 | 80 to 100
Cc1nc(C(C)N(CC2CC2)C(=O)c2cc(Cl)cc(C(F)(F)F)c2)n(-c2ncc(F)cn2)n1 (stereo not shown) [Compound I-77, 3-chloro-N-(cyclopropylmethyl)-N-[1-[2-(5-fluoropyrimidin-2-yl)-5-methyl-1,2,4-triazol-3-yl]ethyl]-5-(trifluoromethyl)benzamide] | 100 | – | 100 | 100 | 100 | 100 | – | 80 to 100 | 80 to 100 | 80 to 100 | 80 to 100 | 80 to 100 | 100 | 100 | – | 80 to 100
CC(c1ncnn1-c1ncccn1)N(CC1CC1)C(=O)c1cncc(Br)c1 (stereo not shown) [Compound I-79] | – | 100 | 100 | – | 100 | 90 | – | – | – | – | – | – | 100 | – | – | –
CC(c1ncnn1-c1ncc(Cl)cn1)N(CC1CC1)C(=O)c1cc(Cl)cc(C(F)(F)F)c1 (stereo not shown) [Compound I-80, 3-chloro-N-[1-[2-(5-chloropyrimidin-2-yl)-1,2,4-triazol-3-yl]ethyl]-N-(cyclopropylmethyl)-5-(trifluoromethyl)benzamide] | 100 | 90 | 100 | 100 | 100 | 100 | – | – | – | – | – | – | – | 100 | – | –
